Test system: severe endophthalmitis
Experiment: Combination therapy treatment of a subject with severe endophthalmitis (single case)
Format: in vivo, human
Settings: topical Ceftazidime, Vancomycin and Prednisolone eye drops every two hours, without efflux transporter inhibitor, over two days, vision dropped to no light perception
Method: A uniocular subject was diagnosed with severe endophthalmitis in their only functioning eye. […] The subject was treated with an aggressive treatment regimen of topical antibiotics Ceftazidime eye drops, Vancomycin eye drops and steroid Prednisolone eye drops every two hours.
Cyclosporin A (sold as […]® from Allergan, Inc.) was added to the treatment regimen and was administered prior to administering the antibiotic and steroid eye drops.
The Ceftriaxone was added to the regimen to increase the aggressiveness of the therapy with the goal of preventing or eliminating any traces of infection in the retina, which can result in irreversible blindness.

SMILES | improvement under initial treatment regimen
C[C@]12C=CC(=O)C=C1CC[C@@H]1[C@@H]2[C@@H](O)C[C@@]2(C)[C@H]1CC[C@]2(O)C(=O)CO [Prednisolone] | no improvement
CC(C)(O/N=C(\C(=O)N[C@@H]1C(=O)N2C(C(=O)[O-])=C(C[n+]3ccccc3)CS[C@H]12)c1csc(N)n1)C(=O)O [Ceftazidime] | no improvement
CN[C@H](CC(C)C)C(=O)N[C@H]1C(=O)N[C@@H](CC(N)=O)C(=O)N[C@H]2C(=O)N[C@H]3C(=O)N[C@H](C(=O)N[C@H](C(=O)O)c4cc(O)cc(O)c4-c4cc3ccc4O)[C@H](O)c3ccc(c(Cl)c3)Oc3cc2cc(c3O[C@@H]2O[C@H](CO)[C@@H](O)[C@H](O)[C@H]2O[C@H]2C[C@](C)(N)[C@H](O)[C@H](C)O2)Oc2ccc(cc2Cl)[C@H]1O [Vancomycin] | no improvement
